Results on five compounds are retold here after patent US11713338B2, “Cyclic peptides multimers targeting α-4-β-7 integrin” (priority 2016, dated 2023).

Structures are written as SMILES. pIC50: −log10 of the molar value.

Assay [1] deals with T1, integrin α4β1 (RAMOS human cells adhering to VCAM-1) (Homo sapiens, UniProt P05556+P13612).
T1 construct: Ramos cells, which express integrin α4β1; host or cells: RAMOS
As to the kind of experiment: Integrin α4β1-VCAM cell adhesion assay (RAMOS cells). The assay is classed as cell-based. The following applies: for pIC50: Ramos cells adhering to VCAM, read-out: Ramos Adhesion α4β1/VCAM IC50; for Ratio Ramos/RPMI: ratio of cell adhesion IC50s, Ramos α4β1/VCAM over RPMI8866 α4β7/MAdCAM. A digest of the protocol: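 Human RAMOS cells loaded with calcein ([…] in PBS, 37° C, 30 min) allowed to adhere to VCAM-1-coated wells blocked with 1% milk. After PBS washes, adherent-cell fluorescence measured and cell-free well background subtracted to build dose-response.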

The target of assay [2] is T2, recombinant integrin α4β1 (Homo sapiens, UniProt P05556+P13612).
T2 construct: purchased R&D Systems 5397-A3-050
Nature of the assay: Integrin α4β1—VCAM-1 competition ELISA. The assay is classed as binding. The following applies: for pIC50: read-out: ELISA α4β1 Assay IC50; for ELISA Assay Ratio β1/β7: ratio of ELISA IC50s, α4β1 over α4β7. The gist of the method:
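Compound dilutions added to coated plate and shaken at room temperature for 2 h (300 rpm) to binding equilibrium. Wash buffer: 50 mM Tris, 100 mM NaCl, 1 mM MnCl2, 0.05% Tween. Bound Fc-tagged ligand detected with anti-human IgG Fc-HRP, 1 h at room temperature.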
In general terms: An ELISA detects its analyte on a solid surface through an enzyme-linked reagent.

In assay [3] the target is T3, recombinant integrin α4β7 (Homo sapiens, UniProt P13612+P26010, DEL724-798).
T3 construct: purchased R&D Systems 5397-A3-050
T3 sequence (P13612 34-970 limits assumed): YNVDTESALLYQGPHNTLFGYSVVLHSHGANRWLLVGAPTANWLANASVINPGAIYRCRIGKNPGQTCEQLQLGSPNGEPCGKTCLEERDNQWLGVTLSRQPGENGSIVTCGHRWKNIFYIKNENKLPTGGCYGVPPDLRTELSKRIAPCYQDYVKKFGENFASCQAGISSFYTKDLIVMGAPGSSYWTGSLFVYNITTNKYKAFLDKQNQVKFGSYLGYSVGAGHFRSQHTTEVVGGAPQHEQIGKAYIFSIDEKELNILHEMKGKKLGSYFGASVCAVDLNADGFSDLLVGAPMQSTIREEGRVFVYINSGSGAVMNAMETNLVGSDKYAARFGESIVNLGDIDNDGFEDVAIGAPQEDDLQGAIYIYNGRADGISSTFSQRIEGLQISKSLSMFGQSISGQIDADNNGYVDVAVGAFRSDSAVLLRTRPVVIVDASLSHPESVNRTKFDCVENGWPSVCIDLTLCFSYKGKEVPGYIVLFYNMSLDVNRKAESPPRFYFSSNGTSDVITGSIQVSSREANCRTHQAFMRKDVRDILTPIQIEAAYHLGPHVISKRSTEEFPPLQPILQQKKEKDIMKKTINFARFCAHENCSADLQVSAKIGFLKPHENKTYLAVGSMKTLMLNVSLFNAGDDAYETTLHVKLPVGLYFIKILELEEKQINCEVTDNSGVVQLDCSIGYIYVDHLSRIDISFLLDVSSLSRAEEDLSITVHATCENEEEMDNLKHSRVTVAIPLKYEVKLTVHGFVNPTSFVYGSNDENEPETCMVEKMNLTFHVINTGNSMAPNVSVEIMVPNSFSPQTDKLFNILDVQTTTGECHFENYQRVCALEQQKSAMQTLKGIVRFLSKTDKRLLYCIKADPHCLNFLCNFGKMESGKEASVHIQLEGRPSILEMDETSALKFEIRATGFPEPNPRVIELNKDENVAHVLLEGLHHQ
T3 sequence (P26010 20-723 limits assumed): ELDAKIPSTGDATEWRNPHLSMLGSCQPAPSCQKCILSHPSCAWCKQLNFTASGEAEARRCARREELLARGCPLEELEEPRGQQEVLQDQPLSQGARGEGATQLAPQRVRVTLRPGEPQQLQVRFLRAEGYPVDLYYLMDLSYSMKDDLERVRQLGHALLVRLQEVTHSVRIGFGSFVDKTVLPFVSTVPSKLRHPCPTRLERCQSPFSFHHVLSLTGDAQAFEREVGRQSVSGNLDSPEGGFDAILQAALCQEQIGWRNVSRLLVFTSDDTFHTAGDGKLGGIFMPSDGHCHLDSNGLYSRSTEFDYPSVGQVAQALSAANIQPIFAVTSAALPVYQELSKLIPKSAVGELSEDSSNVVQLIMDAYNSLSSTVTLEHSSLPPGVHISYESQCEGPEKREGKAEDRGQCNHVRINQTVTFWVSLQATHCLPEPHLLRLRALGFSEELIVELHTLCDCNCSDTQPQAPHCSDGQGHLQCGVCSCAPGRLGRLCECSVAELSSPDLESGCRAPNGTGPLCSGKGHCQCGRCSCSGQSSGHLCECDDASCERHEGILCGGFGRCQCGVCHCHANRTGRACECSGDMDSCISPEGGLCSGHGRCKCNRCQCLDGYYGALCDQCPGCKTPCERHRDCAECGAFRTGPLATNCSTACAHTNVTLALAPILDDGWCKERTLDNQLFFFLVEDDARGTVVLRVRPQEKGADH
Nature of the assay: Integrin α4β7—MAdCAM-1 ELISA competition assay. The assay is classed as binding. The following applies: read-out: ELISA α4β7 Assay IC50.
Description: Integrin α4β7—MAdCAM-1 ELISA Competition Assay
The plate was incubated at 40C overnight. […] The plate was then incubated for 1 hour at room temperature. The plate was washed three times with wash buffer (50 mM Tris, 100 mM NaCl, 1 mM MnCl2, 0.05% Tween). To each well, 50 μl of compound diluted in assay buffer was added by transfer from a compound serial dilution plate. […] The plate was incubated at room temperature with shaking (300 rpm) for 2 hours to reach binding equilibrium. […] The plate was incubated at room temperature for 1 hour under agitation.

T1 sequence (P13612 34-1032): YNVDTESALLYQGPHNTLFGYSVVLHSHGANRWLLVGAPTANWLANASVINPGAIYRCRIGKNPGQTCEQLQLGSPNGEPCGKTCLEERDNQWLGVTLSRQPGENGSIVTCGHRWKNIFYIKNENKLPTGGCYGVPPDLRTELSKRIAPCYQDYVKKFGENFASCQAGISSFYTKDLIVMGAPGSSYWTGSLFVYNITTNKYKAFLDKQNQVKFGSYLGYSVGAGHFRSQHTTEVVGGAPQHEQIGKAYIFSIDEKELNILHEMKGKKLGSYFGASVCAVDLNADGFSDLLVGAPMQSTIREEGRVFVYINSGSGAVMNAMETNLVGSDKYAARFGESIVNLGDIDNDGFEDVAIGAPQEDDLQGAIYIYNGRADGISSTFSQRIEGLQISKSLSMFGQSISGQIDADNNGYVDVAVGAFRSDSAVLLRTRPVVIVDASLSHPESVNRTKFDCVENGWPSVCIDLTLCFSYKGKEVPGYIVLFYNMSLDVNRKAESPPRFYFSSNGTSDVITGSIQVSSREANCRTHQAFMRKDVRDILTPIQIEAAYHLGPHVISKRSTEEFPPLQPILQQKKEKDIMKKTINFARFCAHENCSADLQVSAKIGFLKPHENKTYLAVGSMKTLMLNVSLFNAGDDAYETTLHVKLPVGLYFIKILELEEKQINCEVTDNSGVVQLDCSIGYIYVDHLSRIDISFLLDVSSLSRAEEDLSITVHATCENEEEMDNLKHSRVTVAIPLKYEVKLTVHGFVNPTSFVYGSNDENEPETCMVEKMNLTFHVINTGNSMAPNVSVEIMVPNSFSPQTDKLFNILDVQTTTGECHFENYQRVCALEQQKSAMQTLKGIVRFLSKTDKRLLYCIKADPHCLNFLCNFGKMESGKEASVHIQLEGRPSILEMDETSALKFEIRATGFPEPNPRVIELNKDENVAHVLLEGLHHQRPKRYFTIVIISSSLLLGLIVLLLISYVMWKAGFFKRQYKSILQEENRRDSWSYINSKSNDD
T1 sequence (P05556 21-798): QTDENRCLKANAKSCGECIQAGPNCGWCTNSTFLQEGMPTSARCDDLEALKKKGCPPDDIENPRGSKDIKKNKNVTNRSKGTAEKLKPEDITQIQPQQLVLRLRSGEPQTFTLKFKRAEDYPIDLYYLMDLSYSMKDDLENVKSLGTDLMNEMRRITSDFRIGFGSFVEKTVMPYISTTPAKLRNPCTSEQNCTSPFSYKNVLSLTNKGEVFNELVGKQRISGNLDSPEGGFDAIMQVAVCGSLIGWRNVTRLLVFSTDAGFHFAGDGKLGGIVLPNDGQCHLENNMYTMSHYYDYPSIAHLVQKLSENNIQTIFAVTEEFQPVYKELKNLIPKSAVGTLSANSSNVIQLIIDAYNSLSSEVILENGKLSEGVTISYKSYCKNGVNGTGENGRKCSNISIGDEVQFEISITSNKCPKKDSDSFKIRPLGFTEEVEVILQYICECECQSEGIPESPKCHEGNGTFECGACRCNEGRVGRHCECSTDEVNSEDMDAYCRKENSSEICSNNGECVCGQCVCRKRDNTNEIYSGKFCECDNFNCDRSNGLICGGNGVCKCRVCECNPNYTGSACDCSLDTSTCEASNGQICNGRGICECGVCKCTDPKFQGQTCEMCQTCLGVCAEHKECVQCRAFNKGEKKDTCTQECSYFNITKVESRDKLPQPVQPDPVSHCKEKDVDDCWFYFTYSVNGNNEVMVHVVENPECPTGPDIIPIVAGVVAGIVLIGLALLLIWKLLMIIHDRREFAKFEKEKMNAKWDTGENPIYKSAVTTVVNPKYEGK
T2 sequence (P05556 21-728 limits assumed, one chain of several): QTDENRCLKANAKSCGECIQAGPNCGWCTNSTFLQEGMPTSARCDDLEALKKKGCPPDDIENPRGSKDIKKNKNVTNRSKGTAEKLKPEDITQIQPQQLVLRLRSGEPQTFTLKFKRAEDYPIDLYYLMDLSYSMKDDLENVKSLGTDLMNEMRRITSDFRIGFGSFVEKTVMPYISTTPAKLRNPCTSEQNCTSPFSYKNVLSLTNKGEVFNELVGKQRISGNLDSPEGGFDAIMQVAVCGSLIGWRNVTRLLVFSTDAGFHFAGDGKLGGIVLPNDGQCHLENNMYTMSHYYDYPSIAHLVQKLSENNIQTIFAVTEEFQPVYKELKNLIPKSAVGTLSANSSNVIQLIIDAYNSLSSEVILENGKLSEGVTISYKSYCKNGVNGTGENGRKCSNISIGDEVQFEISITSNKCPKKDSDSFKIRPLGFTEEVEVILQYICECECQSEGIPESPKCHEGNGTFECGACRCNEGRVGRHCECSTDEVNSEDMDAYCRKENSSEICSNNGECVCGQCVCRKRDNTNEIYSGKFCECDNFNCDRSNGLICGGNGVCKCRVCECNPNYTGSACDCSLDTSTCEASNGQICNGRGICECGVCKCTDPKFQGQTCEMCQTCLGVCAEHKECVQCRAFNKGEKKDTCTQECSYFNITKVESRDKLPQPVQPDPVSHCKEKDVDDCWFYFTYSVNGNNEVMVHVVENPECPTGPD

For `CC(C)C[C@@H]1NC(=O)C[C@H](CCCCN)N(C)C(=O)[C@H](CCCCNC(=O)CCCCCC(=O)NCCCC[C@@H]2NC(=O)[C@@H]3CCCN3[C@H](C(=O)NC(C)(C)C)[C@H](C)NC(=O)[C@H]([C@@H](C)O)NC(=O)[C@H](CC(=O)O)NC(=O)[C@H](CC(C)C)NC(=O)C[C@H](CCCCN)N(C)C2=O)NC(=O)[C@@H]2CCCN2[C@H](C(=O)NC(C)(C)C)[C@H](C)NC(=O)[C@H]([C@@H](C)O)NC(=O)[C@H](CC(=O)O)NC1=O` [Compound 532], the values for the pIC50 in assay [1], in assay [2] and in assay [3] were 5.15, 8.16 and 8.21, respectively.
For `CC(C)C[C@@H]1NC(=O)C[C@H](CCCCN)N(C)C(=O)[C@H](CCCCNC(=O)CCCCCCCC(=O)NCCCC[C@@H]2NC(=O)[C@@H]3CCCN3[C@H](C(=O)NC(C)(C)C)[C@H](C)NC(=O)[C@H]([C@@H](C)O)NC(=O)[C@H](CC(=O)O)NC(=O)[C@H](CC(C)C)NC(=O)C[C@H](CCCCN)N(C)C2=O)NC(=O)[C@@H]2CCCN2[C@H](C(=O)NC(C)(C)C)[C@H](C)NC(=O)[C@H]([C@@H](C)O)NC(=O)[C@H](CC(=O)O)NC1=O` [Compound 533], in assay [1], the pIC50 was 5.37 and the “Ratio Ramos/RPMI” value was found to be 257. In addition, in assay [2], the “ELISA Assay Ratio β1/β7” value came to 1.2 and the pIC50 is 8.21. Further, the pIC50 in assay [3] was 8.30.
In the same order, the values of `CC(C)C[C@@H]1NC(=O)C[C@H](CCCCN)N(C)C(=O)[C@H](CCCCNC(=O)c2ccccc2-c2ccccc2C(=O)NCCCC[C@@H]2NC(=O)[C@@H]3CCCN3[C@H](C(=O)NC(C)(C)C)[C@H](C)NC(=O)[C@H]([C@@H](C)O)NC(=O)[C@H](CC(=O)O)NC(=O)[C@H](CC(C)C)NC(=O)C[C@H](CCCCN)N(C)C2=O)NC(=O)[C@@H]2CCCN2[C@H](C(=O)NC(C)(C)C)[C@H](C)NC(=O)[C@H]([C@@H](C)O)NC(=O)[C@H](CC(=O)O)NC1=O` [Compound 535] are 5.02, 634, 0.9, 8.01 and 8.07.
In the same order, the values of `CC(C)C[C@@H]1NC(=O)C[C@H](CCCCN)N(C)C(=O)[C@H](CCCCNC(=O)CCOCCOCCOCCOCCOCCOCCOCCC(=O)NCCCC[C@@H]2NC(=O)[C@@H]3CCCN3[C@H](C(=O)NC(C)(C)C)[C@H](C)NC(=O)[C@H]([C@@H](C)O)NC(=O)[C@H](CC(=O)O)NC(=O)[C@H](CC(C)C)NC(=O)C[C@H](CCCCN)N(C)C2=O)NC(=O)[C@@H]2CCCN2[C@H](C(=O)NC(C)(C)C)[C@H](C)NC(=O)[C@H]([C@@H](C)O)NC(=O)[C@H](CC(=O)O)NC1=O` [Compound 536] are 5.11, 479, 0.9, 8.05 and 8.02.
Consider `CC(C)C[C@@H]1NC(=O)C[C@H](CCCCN)N(C)C(=O)[C@H](CCCCNC(=O)c2cc(C(=O)NCCCC[C@@H]3NC(=O)[C@@H]4CCCN4[C@H](C(=O)NC(C)(C)C)[C@H](C)NC(=O)[C@H]([C@@H](C)O)NC(=O)[C@H](CC(=O)O)NC(=O)[C@H](CC(C)C)NC(=O)C[C@H](CCCCN)N(C)C3=O)cc(C(=O)NCCCC[C@@H]3NC(=O)[C@@H]4CCCN4[C@H](C(=O)NC(C)(C)C)[C@H](C)NC(=O)[C@H]([C@@H](C)O)NC(=O)[C@H](CC(=O)O)NC(=O)[C@H](CC(C)C)NC(=O)C[C@H](CCCCN)N(C)C3=O)c2)NC(=O)[C@@H]2CCCN2[C@H](C(=O)NC(C)(C)C)[C@H](C)NC(=O)[C@H]([C@@H](C)O)NC(=O)[C@H](CC(=O)O)NC1=O` [Compound 538], for which the pIC50 is 5.12 in assay [1], 7.89 in assay [2] and 8.00 in assay [3]. In assay [2], the “ELISA Assay Ratio β1/β7” value is listed as 1.3.
